Results as given in patent US20260132128A1, “COMPOUND FOR RECOVERING P53 MUTATION FUNCTION AND USE THEREOF” (SHENZHEN ZHONGGE BIOLOGICAL TECHNOLOGY CO., LTD., priority 2022, published 2026).
pEC50: −log10 of the molar value. Marks after values point to notes of the source that are not given here.

How the values were obtained:
p53 Y220C [1] = biological target: T1, p53 Y220C (Homo sapiens, UniProt P04637, P309S/R273H/Y220C); assay: DNA binding test (HTRF): binding of P53Y220C protein to DNA; format: biochemical; settings: HTRF, activation of p53 Y220C (aa 94-312) binding to biotin DNA
T1 construct: a truncated mutant containing only amino acids 94-312 of p53; made in house; host or cells: E. coli
Experimental: (§1) In order to detect the ability of the aforementioned compounds to increase the binding of P53Y220C protein to DNA, the binding activity of p53 Y220C was measured by homogeneous time-resolved fluorescence (HTRF). Recombinant His-tagged p53 Y220C for HTRF measurement was expressed in bacteria E. coli. The recombinant protein was a truncated mutant containing only amino acids 94-312 of p53, and its sequence was […] […] VEGNLR […] TFRh[…] […]. The sense strand of the DNA double strand was 5′-[…]-3′, with a biotin tag at the 5′ end for activity assay, and the antisense strand was 5′-[…]-3′ 40 mL of assay buffer (20 mM Tris HCL, pH 7.5, 50 mM NaCl, 2 mM MgCl2, 0.02% Tween 20, 0.01% BSA, 1 mM DTT) was prepared. 10 mM compound was prepared and subjected to 3-fold dilution to obtain 10 dose gradient dilutions of the compound. 20 nL of the compound was added to a 384-well assay plate (PerkinElmer 6007299) using an Echo 655 Liquid Handler. P53Y220C protein was dissolved in assay buffer to reach a final concentration of 150 nM, and 5 μL thereof was added to each well, and incubated at room temperature for 5 min. DNA was dissolved in assay buffer to reach a final concentration of 150 nM, and 5 μL thereof was added to each well, and incubated at room temperature for 15 min. Anti 6HIS-XL665 (Cisbio 61HISXLB) was dissolved in assay buffer to reach a final concentration of 20 nM, and 5 μL thereof was added to each well. Streptavidin-Eu cryptate (Cisbio 610SAKLA) was dissolved in assay buffer to reach a final concentration of 0.625 nM, and 5 μL thereof was added to each well, and incubated at 27° C. for 1 hour. The plate was then read for signal values on an Envision (PerkinElmer 2105-0020) plate reader at 665 nm and 615 nm, respectively. […] Activation rate={(A-C)/(C)}*100%, A=(signal value at 665 nm/signal value at 615 nm); C=average signal of negative control (wherein, negative control referred to 0.1% DMSO).

NUGC-3 cells = assay: NUGC-3 cell proliferation assay (CTG); format: cell-based, human; settings: for Compound GI50 (nM)/Reference compound GI50 (nM): multiple ratio of GI50 of the compound to the reference compound; for GI50: Homo sapiens, NUGC-3, 144 h, 6 days, CTG
Experimental: In order to detect the inhibitory effect of the aforementioned compounds on the proliferation ability of NUGC-3 cells, 250 NUGC-3 cells (Nanjing Cobioer Biosciences Co., Ltd., CBP60492) were seeded into a 384-well plate (Corning 3765), 35 μL per well, and incubated overnight in a constant temperature incubator at 37° C. and 5% CO2. Then, 40 nL of the compound was added to the 384-well plate using an Echo 655 Liquid Handler, with a maximum final concentration of 10 μM, 1:3 serial dilutions, and a total of 10 doses. The culture was performed at 37° C. and 5% CO2 for 6 days. The plate was taken out from the incubator and equilibrated at room temperature for 10 minutes. 20 μL of CTG (Promage G7572) was added to each well of the plate according to the platemap. The plate was centrifuged at 1000 rpm for 1 min. The lysis of cells was induced by mixing on a shaker for 2 min. The plate was centrifuged at 1000 rpm for 1 min. Incubation was performed at room temperature for 10 min to stabilize luminescence signals. Luminescence values were recorded by Envision (PerkinElmer 2105-0020). GraphPad 9.0 was used to fit the inhibition rate and compound concentration into a nonlinear regression curve (dose response-variable slope) to calculate GI50, inhibition rate={1−(A−B)/(C−B)}*100%, A=signal value of compound; B=average signal of blank control; C=average signal of negative control (wherein negative control was 0.1% DMSO).

p53 Y220C [2] = biological target: T2, p53 Y220C (Homo sapiens, UniProt P04637, Y220C); assay: DNA binding test (HTRF): binding of P53Y220C protein to DNA; format: biochemical; settings: multiple ratio of EC50 of the compound to the reference compound, DNA binding test
T2 construct: a truncated mutant containing only amino acids 94-312 of p53; made in house; host or cells: E. coli
Experimental: as §1

Row | pEC50 (p53 Y220C [1]) | Structure (SMILES) | Compound GI50 (nM)/Reference compound GI50 (nM) (NUGC-3 cells) | Compound EC50 (nM)/Reference compound EC50 (nM) (p53 Y220C [2]) | GI50 (NUGC-3 cells) [nM]
1 | > 7.00 | CNC(=O)c1ccc(NCC#Cc2nc3c(N[C@@H]4CC[C@@H](N5CC6(COC6)C5)C[C@@H]4F)cccn3c2CC(F)(F)F)c(OC2CC2)c1 [Compound 57] | – | – | –
2 | – | CNC(=O)c1ccc(NCC#Cc2nc3c(NC4CC[C@@H](N5CC6(COC6)C5)C[C@@H]4F)cccn3c2CC(F)(F)F)c(OCC(F)(F)F)c1 (some centres unmarked) [Compound 59] | C (C: GI50 of the compound ≥ 3 * GI50 of the reference compound) | B (B: EC50 of the reference compound<EC50 of the compound≤3.0*EC50 of the reference compound) | –
3 | – | CNC(=O)c1ccc(NCC#Cc2nc3c(NC4CC[C@@H](N5CC6(COC6)C5)C[C@@H]4F)cccn3c2CC(F)(F)F)c(OC2COC2)c1 (some centres unmarked) [Compound 60] | C (C: GI50 of the compound ≥ 3 * GI50 of the reference compound) | B (B: EC50 of the reference compound<EC50 of the compound≤3.0*EC50 of the reference compound) | –
4 | > 7.00 | CONC(=O)c1ccc(NCC#Cc2nc3c(N[C@@H]4CC[C@@H](N5CC6(COC6)C5)C[C@@H]4F)cccn3c2CC(F)(F)F)c(OC)c1 [Compound 53] | – | – | –
5 | – | CNC(=O)c1ccc(NCC#Cc2nc3c(N[C@@H]4CCC(N5CCCCC5)C[C@@H]4F)cccn3c2CC(F)(F)F)c(OC)c1 (some centres unmarked) [Compound 43] | C (C: GI50 of the compound ≥ 3 * GI50 of the reference compound) | C (C: EC50 of the compound≥3*EC50 of the reference compound) | –
6 | – | CNC(=O)c1ccc(NCC#Cc2nc3c(NC4CC[C@@H](N5CC6(CCOCC6)C5)C[C@@H]4F)cccn3c2CC(F)(F)F)c(OC)c1 (some centres unmarked) [Compound 46] | B (B: GI50 of the reference compound < GI50 of the compound ≤ 3.0 * GI50 of the reference compound) | A (A: EC50 of the compound≤EC50 of the reference compound) | < 1000
7 | – | CNC(=O)c1ccc(NCC#Cc2nc3c(NC4CC[C@@H](N5CC6(COC6)C5)C[C@@H]4F)cccn3c2CC(F)(F)F)c(OCC(F)F)c1 (some centres unmarked) [Compound 62] | C (C: GI50 of the compound ≥ 3 * GI50 of the reference compound) | B (B: EC50 of the reference compound<EC50 of the compound≤3.0*EC50 of the reference compound) | –
8 | – | CNC(=O)c1ccc(NCC#Cc2nc3c(NC4CC[C@@H](N5CC6(COC6)C5)C[C@@H]4F)cccn3c2CC(F)(F)F)c(OCCF)c1 (some centres unmarked) [Compound 63] | C (C: GI50 of the compound ≥ 3 * GI50 of the reference compound) | B (B: EC50 of the reference compound<EC50 of the compound≤3.0*EC50 of the reference compound) | –
9 | > 7.00 | CNC(=O)c1ccc(NCC#Cc2nc3c(N[C@@H]4CC[C@@H](N5CC6(COC6)C5)C[C@@H]4F)cccn3c2CC(F)(F)F)c(OCF)c1 [Compound 58] | – | – | –
10 | – | CNC(=O)c1ccc(NCC#Cc2nc3c(NC4CC[C@@H](N5CCCC5)C[C@@H]4F)cccn3c2CC(F)(F)F)c(OC)c1 (some centres unmarked) [Compound 41] | B (B: GI50 of the reference compound < GI50 of the compound ≤ 3.0 * GI50 of the reference compound) | B (B: EC50 of the reference compound<EC50 of the compound≤3.0*EC50 of the reference compound) | < 1000
11 | – | CNC(=O)c1ccc(NCC#Cc2cc3c(NC4CC[C@@H](N5CC6(COC6)C5)C[C@@H]4F)ccnn3c2CC(F)(F)F)c(OC)c1 (some centres unmarked) [Compound 68] | C (C: GI50 of the compound ≥ 3 * GI50 of the reference compound) | C (C: EC50 of the compound≥3*EC50 of the reference compound) | –
12 | – | COc1cc(C(=O)NC2CC(F)C2)ccc1NCC#Cc1nc2c(NC3CC[C@@H](N4CC5(COC5)C4)C[C@@H]3F)cccn2c1CC(F)(F)F (some centres unmarked) [Compound 56] | C (C: GI50 of the compound ≥ 3 * GI50 of the reference compound) | C (C: EC50 of the compound≥3*EC50 of the reference compound) | –
